According to patent publication US7041486B1, “Enzyme having decolorizing activity and method for decolorizing dyes by using the same” (Meiji Seika Kaisha Ltd., priority 1999, dated 2006):
Entries after “also recorded” stand apart in the source; their conditions may differ. Read-outs that look alike come from different tables or passages of the source.

Columns and labels:
[1] = test system: DyP; assay: Oxidation of model compounds by DyP (absorbance); assay type: biochemical, Geotrichum candidum Dec 1; conditions: for Oxidation rate: 2.79 nM DyP, 0.2 mM hydrogen peroxide, 25 mM citrate buffer, pH and initial concentration (mM) as in columns c2, c3, 470 nm or 465 nm; for Degradation by DyP (in words): model compounds of Table 2
Description: As the model compounds, additionally, use was made of 2,6-dimethoxyphenol, guaiacol and veratryl alcohol.
As to 2,6-dimethoxyphenol used as a model compound, alternatively, absorbance at 470 nm was calorimetrically measured, which emerged via oxidation.
That is to say, a mixture solution of 2.79 nM DyP and 0.2 mM 2,6-dimethoxyphenol was reacted with 25 mM citrate buffer (pH 4.5) containing 0.2 mM hydrogen peroxide.
As to guaiacol, 1 mM guaiacol was used in place of 0.2 mM 2,6-dimethoxyphenol, for absorbance measurement at 465 nm.

[2] = test system: DyP; assay: Assay of dye-degrading (decolorizing) activity of purified DyP; assay type: biochemical, Geotrichum candidum Dec 1; conditions: dyes of Table 1
Description: The dye-degrading spectrum of the purified DyP was examined for nine types of dyes and three model compounds. The activity of the purified DyP to degrade these dyes or model compounds was assayed by measuring the degradation rates.
As the dyes, use was made of Reactive blue 5, 19 and 114; AQ-1 and AQ-2; Reactive black 5, Reactive red 33, Reactive yellow 2, and Reactive blue 182.
The dye-degrading activity was measured as follows.
0.2 to 0.4 mM aqueous hydrogen peroxide was added to a mixture solution of 3 mL of 25 mM citrate buffer (adjusted to the optimum pH for the degradation of each of the dyes) containing each dye at a fixed […] (30 to 120 ppm) and 1 mL of 1.86 nM DyP solution, to initiate the enzyme reaction. Reaction was performed at 30° C. for a fixed period of time, to assay the reaction rate.
1 U of the dye-degrading activity was defined as the activity to decolorize 1 μmole Reactive blue 5 or AQ-2 for one minute.

[3] = test system: DyP; assay type: biochemical, Geotrichum candidum Dec 1; conditions: for Specific activity (%): 100 ppm Reactive blue 5, no addition = 100
Text: […], zinc, copper (divalent), potassium, iron (divalent) and sodium were concurrently present in a reaction solution comprising DyP and 100 ppm Reactive blue 5, so as to examine the effects of these metal ions on the relative activity of the DyP enzyme.

[4] = Isoelectric focusing; assay type: physicochemical; conditions: FIG. 2
Description: Then, the isoelectric point of the inventive enzyme was measured. The isoelectric point was measured by isoelectric focusing.
For measurement of isoelectric focusing, a low-pI calibration kit of Multiphor II 2-D for pH 2.5 to pH 6.5, manufactured by Pharmacia, Co. was used. Consequently, the isoelectric point of DyP was assayed as 3.8.

[5] = Temperature stability of peroxidase (remaining activity after storage); assay type: physicochemical; conditions: 25 mM citrate buffer
Description: After the inventive dye-degrading enzyme DyP was stored at a fixed temperature for a fixed period of time, the ratio of the remaining activity was subsequently evaluated. Specifically, a solution of the dye-degrading enzyme DyP in 25 mM citrate buffer was stored at 30° C. or 40° C. for 14 days.
So as to compare the temperature stability with those of other peroxidases, solutions of individual enzymes in 25 mM citrate buffer were stored at 60° C. for 3 hours, by using a commercially available horse-radish peroxidase (manufactured by Wako Chemical Co., Ltd.; sometimes abbreviated as HRP hereinafter) as the control. Subsequently, the remaining enzyme activities were compared to each other.

Molecule: COc1cccc(OC)c1O [2,6-Dimethoxyphenol, 2,6-dimethoxyphenol]
- Oxidation rate [1]: 0.29 ΔOD/min
- Degradation by DyP (in words) [1]: could efficiently be degraded

Molecule: CNc1cc(S(=O)(=O)[O-])c(N)c2c1C(=O)c1ccccc1C2=O.[Na+] [AQ-2, 1-amino-4-methylamino-2-sodium-anthraquinone sulfonate]
- Degradation by DyP (in words) [2]: excellent degradation activity

Molecule: [Ca+2] [Ca^++, calcium]
- Specific activity (%) ([3]; metal ion 5 mM): 81%

Molecule: [Cu+2] [Cu^++, copper (divalent)]
- Specific activity (%) ([3]; metal ion 5 mM): 75%

Molecule: [Fe+2] [Fe^++, iron (divalent)]
- Inhibition of DyP activity ([3]; ion concurrently present at 0.2 mM): 50%
- Specific activity (%) ([3]; metal ion 0.2 mM): 50%

Molecule: COc1ccccc1O [Guaiacol, guaiacol]
- Oxidation rate [1]: 0.29 ΔOD/min
- Degradation by DyP (in words) [1]: could efficiently be degraded

Molecule: [K+] [K^+, potassium]
- Specific activity (%) ([3]; metal ion 5 mM): 81%

Molecule: [Na+] [Na^+, sodium]
- Specific activity (%) ([3]; metal ion 5 mM): 81%

Molecule: Nc1c(S(=O)(=O)[O-])cc(Nc2ccc(S(=O)(=O)[O-])c(Nc3nc(Cl)nc(Nc4cccc(S(=O)(=O)[O-])c4)n3)c2)c2c1C(=O)c1ccccc1C2=O.[Na+].[Na+].[Na+] [Reactive blue 5]
- Degradation by DyP (in words) [2]: excellent degradation activity

Molecule: Nc1c(S(=O)(=O)[O-])cc(Nc2cccc(S(=O)(=O)CCOS(=O)(=O)[O-])c2)c2c1C(=O)c1ccccc1C2=O.[Na+].[Na+] [Reactive blue 19]
- Degradation by DyP (in words) [2]: excellent degradation activity

Molecule: COc1ccc(CO)cc1OC [Veratryl alcohol, veratryl alcohol]
- Degradation by DyP (in words) [1]: could never degrade; also recorded: no reaction

Molecule: [Zn+2] [Zn^++, zinc]
- Specific activity (%) ([3]; metal ion 5 mM): 69%

Molecule: Reactive blue 182
- Degradation by DyP (in words) [2]: efficiently degraded

B1: DyP: peroxidase derived from Geotrichum candidum Dec 1 strain (FERM BP-7033), amino acid sequence SEQ ID NO. 7 (protein, listed as Geotrichum candidum)
chain: MDLSLFVVSVAVLVGSSSHVNAAKLGARQTRTTPLLTNFPGQAPLPTLTQHTTESGANDTILPLNNIQGDILVGMKKQKERFVFFQVNDATSFKTALKTYVPQRITSAAILISDPSQQPLAFVNLGFSNTGLQALGITDDLGDAQFPDGQFADAANLGDDLSQWVAPFTGTTIHGVFLIGSDQDDFLDQFTDDISSTFGSSITQVQALSGSARPGDQAGHEHFGFLDGISQPSVTGWETTVFPGQAVVPPGIILTGRDGDTGTRPSWALDGSFMAFRHFQQKVPEFNAYTLANAIPANSAGNLTQQEGAEFLGARMFGRWKSGAPIDLAPTADDPALGADPQRNNNFDYSDTLTDETRCPFGAHVRKTNPRQDLGGPVDTFHAMRSSIPYGPETSDAELASGVTAQDRGLLFVEYQSIIGNGFRFQQINWANNANFPFSKPITPGIEPIIGQTTPRTVGGLDPLNQNETFTVPLFVIPKGGEYFFLPSISALTATIAA
- Isoelectric point (pI) [4]: 3.8
- Remaining enzyme activity ([5]; stored at 30° C. for 14 days): 63%
- Remaining enzyme activity ([5]; stored at 40° C. for 14 days): 41%
- Remaining enzyme activity ([5]; stored at 60° C. for 3 hours): 65%
